Data reported in US9433655B2, “Composition comprising natural substance extract as active ingredient for preventing or treating acute renal failure” (priority 2012, dated 2016).
“Also recorded” adds a separate entry of the source.

Legend:
renal epithelial cells = experiment: Measurement of GSH content; type: cell-based; settings: single treatment of cisplatin 25 μg/ml, 24 hours
Procedure: Monochlorobimane was employed to determine the GSH levels, and experiments for measuring GSH content were performed using the […] with reference to the conventional method of Fernandez-Checa and Kaplowitz. The number of cells, in which GSH is detectable, was determined by historical data and preliminary experiment, and 2×10^6 cells were seeded to each well of culture plate. After culture for 24 hours, the dilution fold of the final concentration of the drug determined as an active drug was considered and calculated, based on the results of MTT Assay and crystal violet Assay. […] Cells were harvested using 0.25% Trypsin-EDTA, and then centrifuged at 1,200 rpm for 3 minutes. Cold buffer was added to the resulting cell pellet, followed by sonication for 30 seconds. Centrifugation was carried out at 10,000 rpm for 15 minutes, and then the supernatant was collected and used for BCA protein quantification. 1 g/ml of MPA diluted in D.W was added to the supernatant at a volume ratio of 4:1, followed by immediately vortexing. […] End-point fluorescence wavelength at Ex: 360 nm and Em: 460 nm was measured at S=70. Data of the experimental results were analyzed using a Microsoft Excel program, and post-test analysis using Bonferroni multiple comparison test was performed to investigate the differences between the groups. p<0.001 was considered statistically significant.

p53 = experiment: Examination of p53 expression pattern (Western blot); type: cell-based; settings: single treatment of cisplatin
Procedure: Cells treated with Elsholtziae Herba extract and/or cisplatin were harvested, and RIPA buffer was added thereto, followed by sonication for cell lysis. Centrifugation was performed at 15,000 rpm for 15 minutes, and the supernatant was obtained, and subjected to protein quantification by BCA assay. The protein was loaded at an amount of 20 μg/10 μl in each well, and 12% SDS-PAGE polyacrylamide gel electrophoresis was performed, and transferred to a nitrocellulose membrane. The membrane was blocked with 5% Skim milk-TBST, and then treated with primary antibody (anti-p53/dilution—1:300). p53 was detected with HRP conjugated anti-mouse IgG (dilution—1:5000) and immune reaction was visualized by ECL. The measurement results are shown as Mean±S.E.M. (standard error of mean) in FIG. 6.

Question: How did the GSH content (renal epithelial cells) turn out when `N.N.[Cl][Pt][Cl]` [cisplatin, cis-diaminedichloroplatinum II] was run?
Answer: reduced GSH content

Question: And the p53 expression level (p53)?
Answer: increased p53 expression; also recorded: remarkably increased
